The IC50 is the concentration needed to halve the response being measured.

This is an account of results in patent US6348486B1, “Methods for modulating bladder function” (American Home Products Corporation, priority 2000, dated 2002).

The subject of assay [1] is isolated carbachol contracted rat bladder strips. Briefly: Relaxation of isolated carbachol contracted rat bladder strips. Here is the method: (§1) Using quantitative rtPCR, the expression of KCNQ1, KCNQ3 and KCNQ5 potassium channels was identified in the rat urinary bladder. […] To further probe M-current activity in the bladder, retigabine (10 μM, M-current agonist) was tested in isolated bladder smooth muscle cells using standard patch-clamp techniques. […] This hyperpolarization was reversed by the addition of linopirdine (50 μM an M-current antagonist) to the tissue bath. […] This relaxation was reversed by the M-current blockers linopirdine and XE-991.

Assay [2] deals with isolated bladder smooth muscle cells. Briefly: Patch-clamp of isolated bladder smooth muscle cells (M-current activity). Type of assay: cell-based, rat. Here is the method: as §1
(Patch clamp records ionic current or voltage across a cell membrane.)

Assay [3] addresses T1, KCNQ2/3 potassium channels (Homo sapiens, UniProt O43525+O43526).
T1 construct: host or cells: oocytes (heterologous expression, as described in the cited article)
The note with it: oocytes; cited from earlier work.

T1 sequence (O43526 whole entry): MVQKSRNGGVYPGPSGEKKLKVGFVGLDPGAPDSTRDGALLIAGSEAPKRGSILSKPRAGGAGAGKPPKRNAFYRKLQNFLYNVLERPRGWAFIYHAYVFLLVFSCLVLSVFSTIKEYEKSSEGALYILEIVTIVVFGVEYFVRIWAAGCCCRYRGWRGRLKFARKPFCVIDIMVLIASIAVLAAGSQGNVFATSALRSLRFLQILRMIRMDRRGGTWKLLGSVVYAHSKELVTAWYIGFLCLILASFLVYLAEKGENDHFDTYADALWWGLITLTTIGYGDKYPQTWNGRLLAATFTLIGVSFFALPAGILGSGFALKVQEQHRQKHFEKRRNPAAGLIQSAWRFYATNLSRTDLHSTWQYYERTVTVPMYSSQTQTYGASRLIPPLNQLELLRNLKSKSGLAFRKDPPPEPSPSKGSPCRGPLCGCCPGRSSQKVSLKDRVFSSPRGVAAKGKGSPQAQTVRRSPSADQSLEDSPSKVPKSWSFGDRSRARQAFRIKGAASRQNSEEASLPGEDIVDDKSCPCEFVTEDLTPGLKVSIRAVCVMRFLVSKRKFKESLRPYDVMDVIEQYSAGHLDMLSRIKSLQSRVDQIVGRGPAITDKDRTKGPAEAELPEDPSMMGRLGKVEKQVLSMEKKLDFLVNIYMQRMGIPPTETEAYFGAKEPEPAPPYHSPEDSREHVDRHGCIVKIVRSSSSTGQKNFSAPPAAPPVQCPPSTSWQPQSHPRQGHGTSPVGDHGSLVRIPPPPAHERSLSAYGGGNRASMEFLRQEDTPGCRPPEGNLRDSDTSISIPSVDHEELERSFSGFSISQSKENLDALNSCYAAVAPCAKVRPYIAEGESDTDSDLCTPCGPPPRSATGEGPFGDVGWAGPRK
T1 sequence (O43525 whole entry): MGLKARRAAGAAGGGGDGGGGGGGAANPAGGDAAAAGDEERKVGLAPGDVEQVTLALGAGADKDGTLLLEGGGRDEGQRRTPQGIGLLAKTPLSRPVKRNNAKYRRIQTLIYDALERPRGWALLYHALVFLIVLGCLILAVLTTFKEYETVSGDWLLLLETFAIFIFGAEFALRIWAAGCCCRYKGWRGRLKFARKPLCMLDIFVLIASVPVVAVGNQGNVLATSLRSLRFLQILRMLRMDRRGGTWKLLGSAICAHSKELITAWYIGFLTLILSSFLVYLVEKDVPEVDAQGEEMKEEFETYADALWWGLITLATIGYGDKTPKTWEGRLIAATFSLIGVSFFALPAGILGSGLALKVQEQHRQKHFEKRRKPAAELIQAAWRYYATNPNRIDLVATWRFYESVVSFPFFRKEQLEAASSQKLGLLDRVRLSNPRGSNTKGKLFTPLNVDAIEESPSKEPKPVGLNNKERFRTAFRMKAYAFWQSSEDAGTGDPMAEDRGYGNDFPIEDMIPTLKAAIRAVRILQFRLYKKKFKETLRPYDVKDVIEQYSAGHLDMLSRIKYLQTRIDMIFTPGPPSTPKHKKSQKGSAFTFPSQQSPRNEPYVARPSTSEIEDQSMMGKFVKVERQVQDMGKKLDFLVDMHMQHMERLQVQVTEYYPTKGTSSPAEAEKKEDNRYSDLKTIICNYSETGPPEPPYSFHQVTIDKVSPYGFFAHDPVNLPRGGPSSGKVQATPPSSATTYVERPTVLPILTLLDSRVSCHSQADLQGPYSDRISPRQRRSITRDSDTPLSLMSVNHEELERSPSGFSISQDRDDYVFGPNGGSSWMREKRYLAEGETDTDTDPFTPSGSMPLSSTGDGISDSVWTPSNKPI

In the case of `O=C1c2ccccc2C(Cc2ccncc2)(Cc2ccncc2)c2ccccc21` [XE-991], in assay [1], the “reversal of retigabine-induced relaxation by M-current blockers” value was “reversed”.
Consider `O=C1N(c2ccccc2)c2ccccc2C1(Cc1ccncc1)Cc1ccncc1` [linopirdine], for which the “reversal of retigabine-induced relaxation by M-current blockers” value in assay [1] was “reversed”. Besides, in assay [2] (linopirdine 50 μM added to the tissue bath), the “reversal of retigabine-induced hyperpolarization” value is given as “reversed”.
On to `CCOC(=O)Nc1ccc(NCc2ccc(F)cc2)cc1N` [retigabine, N-[2-amino-4-(4-fluorobenzylamino)-phenyl]carbamic acid ethyl ester], for which, in assay [3], the channel deactivation entry is “slows channel deactivation”, the “rate of channel activation” value is reported as “increases the rate of channel activation” and the “voltage dependence of channel activation” value was “shifts the voltage dependence of channel activation to more hyperpolarized membrane potentials”. The IC50 in assay [1] (Rattus norvegicus, read-out: IC50 for relaxation of carbachol contracted bladder strips) came out at 3.5 ± 0.9 µM. The same molecule yielded a membrane hyperpolarization in assay [2] (retigabine 10 μM, n=5) of 17.8±3.0 mV. The “outward current insensitive to iberiotoxin” value in assay [2] (retigabine 10 μM, standard patch-clamp) is “significantly increased”.
